{"source": "ChEMBL document CHEMBL3526086", "about": "“Identification of the oxidative and conjugative enzymes involved in the biotransformation of brivanib” (Drug Metab Dispos, 2012)", "assay_type_in_all_cases": "ADME", "key": {"[1]": {"assay": "Activity of CYP3A4/CYP1A2 in human liver microsomes assessed as intrinsic clearance for enzyme-mediated (R)-1-(4-(4-fluoro-2-(hydroxymethyl)-1H-indol-5-yloxy)-5-methylpyrrolo[1,2-f][1,2,4]triazin-6-yloxy)propan-2-ol formation per mg protein in presence of NADPH"}, "[2]": {"target": "Cytochrome P450 2C9 (Homo sapiens, UniProt P11712)", "sequence (P11712 whole entry)": "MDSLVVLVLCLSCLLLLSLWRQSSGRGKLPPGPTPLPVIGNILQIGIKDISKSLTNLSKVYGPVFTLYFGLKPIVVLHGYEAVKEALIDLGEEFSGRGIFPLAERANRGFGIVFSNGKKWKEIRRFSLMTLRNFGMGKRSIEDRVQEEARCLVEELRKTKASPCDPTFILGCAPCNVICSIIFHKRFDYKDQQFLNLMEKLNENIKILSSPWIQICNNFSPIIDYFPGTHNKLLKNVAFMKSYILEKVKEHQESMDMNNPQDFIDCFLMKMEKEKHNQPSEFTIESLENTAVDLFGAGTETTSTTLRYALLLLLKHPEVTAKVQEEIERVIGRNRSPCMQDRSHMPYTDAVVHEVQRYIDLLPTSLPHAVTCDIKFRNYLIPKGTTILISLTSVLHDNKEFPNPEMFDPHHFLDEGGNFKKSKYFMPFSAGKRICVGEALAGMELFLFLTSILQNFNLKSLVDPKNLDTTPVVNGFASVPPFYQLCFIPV", "assay": "Drug metabolism assessed as human CYP2C9-mediated (R)-1-(4-(4-fluoro-2-(hydroxymethyl)-1H-indol-5-yloxy)-5-methylpyrrolo[1,2-f][1,2,4]triazin-6-yloxy)propan-2-ol formation at 2 and 20 uM for 20 mins by LC/MS analysis in presence of NADPH", "conditions": "recombinant enzyme"}, "[3]": {"target": "Cytochrome P450 2E1 (Homo sapiens, UniProt P05181)", "sequence (P05181 whole entry)": "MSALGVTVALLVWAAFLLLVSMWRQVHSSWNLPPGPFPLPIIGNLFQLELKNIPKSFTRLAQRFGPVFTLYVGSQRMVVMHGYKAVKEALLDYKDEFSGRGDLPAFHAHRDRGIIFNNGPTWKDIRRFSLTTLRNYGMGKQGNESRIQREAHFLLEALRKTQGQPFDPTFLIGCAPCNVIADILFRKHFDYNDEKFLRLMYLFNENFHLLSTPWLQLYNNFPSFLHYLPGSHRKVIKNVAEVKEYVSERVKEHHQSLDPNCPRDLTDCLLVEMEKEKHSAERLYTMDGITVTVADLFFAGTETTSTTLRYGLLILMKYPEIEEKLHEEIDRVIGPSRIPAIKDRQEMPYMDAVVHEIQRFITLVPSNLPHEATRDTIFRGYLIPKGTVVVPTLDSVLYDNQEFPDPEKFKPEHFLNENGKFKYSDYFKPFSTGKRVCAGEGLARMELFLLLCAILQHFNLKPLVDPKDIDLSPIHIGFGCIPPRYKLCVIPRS", "assay": "Drug metabolism in human liver microsomes assessed as 50 uM diethyldithiocarbamate-mediated inhibition of CYP2E1-mediated (R)-1-(4-(4-fluoro-2-(hydroxymethyl)-1H-indol-5-yloxy)-5-methylpyrrolo[1,2-f][1,2,4]triazin-6-yloxy)propan-2-ol formation at 2 and 20 uM for 30 mins by LC/MS analysis", "conditions": "0.5 h"}, "[4]": {"target": "T1, Cytochrome P450 2A6 (Homo sapiens, UniProt P11509)", "T1 sequence (P11509 whole entry)": "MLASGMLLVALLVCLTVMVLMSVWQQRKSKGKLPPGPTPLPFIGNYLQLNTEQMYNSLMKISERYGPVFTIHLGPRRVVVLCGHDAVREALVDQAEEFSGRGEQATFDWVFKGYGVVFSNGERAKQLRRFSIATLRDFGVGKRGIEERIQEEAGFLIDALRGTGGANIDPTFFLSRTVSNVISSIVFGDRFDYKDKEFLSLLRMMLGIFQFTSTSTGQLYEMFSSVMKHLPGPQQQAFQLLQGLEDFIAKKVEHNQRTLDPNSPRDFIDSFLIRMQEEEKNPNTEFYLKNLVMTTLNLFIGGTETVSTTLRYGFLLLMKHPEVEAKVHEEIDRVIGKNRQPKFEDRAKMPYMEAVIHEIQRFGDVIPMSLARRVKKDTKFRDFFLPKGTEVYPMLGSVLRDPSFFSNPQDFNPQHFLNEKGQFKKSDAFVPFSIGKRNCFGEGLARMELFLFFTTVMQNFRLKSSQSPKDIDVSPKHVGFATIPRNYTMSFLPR", "assay": "Drug metabolism in human liver microsomes assessed as 2 uM tranylcypromine-mediated inhibition of CYP2A6-mediated (R)-1-(4-(4-fluoro-2-(hydroxymethyl)-1H-indol-5-yloxy)-5-methylpyrrolo[1,2-f][1,2,4]triazin-6-yloxy)propan-2-ol formation at 2 and 20 uM for 30 mins by LC/MS analysis", "conditions": "0.5 h"}, "[5]": {"target": "T2, Cytochrome P450 1A2 (Homo sapiens, UniProt P05177)", "T2 sequence (P05177 whole entry)": "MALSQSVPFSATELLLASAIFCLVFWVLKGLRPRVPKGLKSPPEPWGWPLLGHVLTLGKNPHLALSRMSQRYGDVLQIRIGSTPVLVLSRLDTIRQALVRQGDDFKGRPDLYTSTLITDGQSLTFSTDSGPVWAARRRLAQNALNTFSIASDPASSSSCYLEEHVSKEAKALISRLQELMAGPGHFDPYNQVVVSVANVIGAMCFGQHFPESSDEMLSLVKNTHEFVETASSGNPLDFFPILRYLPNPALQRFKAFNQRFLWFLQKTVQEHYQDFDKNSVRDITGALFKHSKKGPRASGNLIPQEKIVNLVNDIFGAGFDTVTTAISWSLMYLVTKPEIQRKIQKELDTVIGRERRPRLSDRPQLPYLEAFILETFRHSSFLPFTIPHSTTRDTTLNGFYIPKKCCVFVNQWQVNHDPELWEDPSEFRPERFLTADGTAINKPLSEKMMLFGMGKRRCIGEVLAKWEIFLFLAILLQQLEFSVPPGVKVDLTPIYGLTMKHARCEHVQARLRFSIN", "assay": "Activity of human CYP1A2 assessed as intrinsic clearance for enzyme-mediated (R)-1-(4-(4-fluoro-2-(hydroxymethyl)-1H-indol-5-yloxy)-5-methylpyrrolo[1,2-f][1,2,4]triazin-6-yloxy)propan-2-ol formation per picomole enzyme in presence of NADPH"}, "[6]": {"target": "T3, Cytochrome P450 3A4 (Homo sapiens, UniProt P08684)", "T3 sequence (P08684 whole entry)": "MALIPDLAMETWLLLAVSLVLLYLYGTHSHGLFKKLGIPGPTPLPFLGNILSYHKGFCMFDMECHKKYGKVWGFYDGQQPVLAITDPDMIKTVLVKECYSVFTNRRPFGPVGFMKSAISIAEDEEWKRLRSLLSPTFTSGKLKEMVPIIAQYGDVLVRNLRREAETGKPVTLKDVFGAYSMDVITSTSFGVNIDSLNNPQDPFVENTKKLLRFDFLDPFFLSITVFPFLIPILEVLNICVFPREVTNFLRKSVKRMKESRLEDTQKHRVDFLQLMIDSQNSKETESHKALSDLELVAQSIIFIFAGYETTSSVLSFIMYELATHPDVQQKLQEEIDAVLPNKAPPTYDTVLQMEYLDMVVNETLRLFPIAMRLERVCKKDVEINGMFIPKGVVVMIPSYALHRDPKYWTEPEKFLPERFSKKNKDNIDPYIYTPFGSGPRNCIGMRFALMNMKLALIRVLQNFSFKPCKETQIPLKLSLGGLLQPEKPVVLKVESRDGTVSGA", "assay": "Drug metabolism assessed as human CYP3A4-mediated (R)-1-(4-(4-fluoro-2-(hydroxymethyl)-1H-indol-5-yloxy)-5-methylpyrrolo[1,2-f][1,2,4]triazin-6-yloxy)propan-2-ol formation at 2 and 20 uM for 20 mins by LC/MS analysis in presence of NADPH", "conditions": "recombinant enzyme"}, "[7]": {"system": "Liver microsome", "assay": "Drug level in human liver microsomes assessed as compound formation treated with 2 uM [14C]brivanib alaninate for 60 mins by LC/MS analysis in presence of NADPH", "conditions": "1 h"}, "[8]": {"target": "T3, Cytochrome P450 3A4", "assay": "Activity of human CYP3A4 assessed as intrinsic clearance for enzyme-mediated (R)-1-(4-(4-fluoro-2-(hydroxymethyl)-1H-indol-5-yloxy)-5-methylpyrrolo[1,2-f][1,2,4]triazin-6-yloxy)propan-2-ol formation per picomole enzyme in presence of NADPH"}, "[9]": {"system": "Liver microsome", "assay": "Drug level in human liver microsomes assessed as compound formation treated with 2 uM [14C]brivanib alaninate for 60 mins by LC/MS analysis", "conditions": "1 h"}, "[10]": {"target": "Cytochrome P450 2C19 (Homo sapiens, UniProt P33261)", "sequence (P33261 whole entry)": "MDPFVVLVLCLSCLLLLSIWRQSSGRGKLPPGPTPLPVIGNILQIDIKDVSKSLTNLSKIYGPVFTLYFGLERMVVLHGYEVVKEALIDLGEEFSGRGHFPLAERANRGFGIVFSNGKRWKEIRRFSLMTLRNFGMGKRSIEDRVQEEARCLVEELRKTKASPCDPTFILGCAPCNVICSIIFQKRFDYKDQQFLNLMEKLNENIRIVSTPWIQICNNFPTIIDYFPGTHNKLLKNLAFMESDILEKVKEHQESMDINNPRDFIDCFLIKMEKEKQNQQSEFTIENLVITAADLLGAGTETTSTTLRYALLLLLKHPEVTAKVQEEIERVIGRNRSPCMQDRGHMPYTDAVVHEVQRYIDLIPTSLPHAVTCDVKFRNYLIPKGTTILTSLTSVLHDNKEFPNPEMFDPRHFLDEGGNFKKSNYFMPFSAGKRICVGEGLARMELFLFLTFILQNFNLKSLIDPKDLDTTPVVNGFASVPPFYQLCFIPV", "assay": "Drug metabolism in human liver microsomes assessed as monoclonal antibody-mediated inhibition of CYP2C19-mediated (R)-1-(4-(4-fluoro-2-(hydroxymethyl)-1H-indol-5-yloxy)-5-methylpyrrolo[1,2-f][1,2,4]triazin-6-yloxy)propan-2-ol formation at 2 and 20 uM for 30 mins by LC/MS analysis", "conditions": "0.5 h"}, "[11]": {"system": "Liver microsome", "assay": "Drug metabolism in human liver microsomes assessed as (R)-1-(4-(4-fluoro-2-(hydroxymethyl)-1H-indol-5-yloxy)-5-methylpyrrolo[1,2-f][1,2,4]triazin-6-yloxy)propan-2-ol formation at 2 and 20 uM for 30 mins by LC/MS analysis in presence of antibody for CYP3A4/5", "conditions": "0.5 h"}, "[12]": {"assay": "Activity of CYP3A4/CYP1A2 in human liver microsomes assessed as enzyme-mediated (R)-1-(4-(4-fluoro-2-(hydroxymethyl)-1H-indol-5-yloxy)-5-methylpyrrolo[1,2-f][1,2,4]triazin-6-yloxy)propan-2-ol formation in presence of NADPH"}, "[13]": {"target": "T1, Cytochrome P450 2A6", "assay": "Drug metabolism in human liver microsomes assessed as monoclonal antibody-mediated inhibition of CYP2A6-mediated (R)-1-(4-(4-fluoro-2-(hydroxymethyl)-1H-indol-5-yloxy)-5-methylpyrrolo[1,2-f][1,2,4]triazin-6-yloxy)propan-2-ol formation at 2 and 20 uM for 30 mins by LC/MS analysis", "conditions": "0.5 h"}}, "data": [{"smiles": "Cc1cc2c(F)c(Oc3ncnn4cc(OC[C@@H](C)O)c(C)c34)ccc2[nH]1", "note": "[BRIVANIB]", "values": [{"measurement": "CLint", "setting": "[1]", "value": 3.1, "unit": "µL/min/mg"}, {"measurement": "Drug metabolism", "setting": "[2]", "value": "metabolite_detected"}, {"measurement": "Drug metabolism", "setting": "[3]", "value": "metabolite_detected"}, {"measurement": "Drug metabolism", "setting": "[4]", "value": "metabolite_detected"}, {"measurement": "CL", "setting": "[5]", "value": 0.031, "unit": "µL/min"}, {"measurement": "Drug metabolism", "setting": "[6]", "value": "metabolite_detected"}, {"measurement": "Drug metabolism", "setting": "[7]", "value": "metabolite_detected"}, {"measurement": "CL", "setting": "[8]", "value": 0.016, "unit": "µL/min"}, {"measurement": "Drug metabolism", "setting": "[9]", "value": "metabolite_detected"}, {"measurement": "Drug metabolism", "setting": "[10]", "value": "metabolite_detected"}, {"measurement": "Drug metabolism", "setting": "[11]", "value": "metabolite_not_detected"}, {"measurement": "Km", "setting": "[12]", "value": 29.1, "unit": "µM"}, {"measurement": "Drug metabolism", "setting": "[13]", "value": "metabolite_detected"}]}]}
